In general, inhibition refers to the percentage by which the read-out fell short of the control. For orientation: CC50 means the concentration giving 50% cytotoxicity. A low value points to greater toxicity to the cells.

We go through 21 compounds from patent US20140221346A1, “THERAPEUTIC COMPOUNDS” (Gilead Sciences, Inc., priority 2013, published 2014).

One data set relates to HIV-IIIb. Kind of data set: Test A: Antiviral Assay in MT4 Cells. It counts as cell-based, HIV-1. The conditions noted are these: Human immunodeficiency virus 1, IIIB, MT4, 120 h, read-out: % inhibition at 3 μM. On the procedure:
(§1) For the antiviral assay, 40 μL of 1× test concentration of 3-fold serially diluted compound in culture medium with 10% FBS was added to each well of a 384-well plate (10 concentrations) in quadruplicate. MT-4 cells were next mixed with HIV-IIIb at an m.o.i of 0.003 for 1 hour, after which time 35 μL of virus/cell mixture (2000 cells) was immediately added to each well containing 40 μL of diluted compound. The plates were then incubated at 37° C. for 5 days. After 5 days of incubation, 25 μl of 2× concentrated CellTiter-Glo™ Reagent (catalog #G7571, Promega Biosciences, Inc., Madison, Wis.) was added to each well containing MT-4 cells. Cell lysis was carried out by incubating at room temperature for 10 min and then chemiluminescence was read.

The nature of data set [1]: Test B: Cytotoxicity Assay. It counts as cell-based. The conditions noted are these: human, uninfected MT-4 cells, same protocol as Test A, CellTiter-Glo. How it is done: as §1
Compound cytotoxicity and the corresponding CC50 values was determined using the same protocol as described in the antiviral assay (Test A) except that uninfected cells were used.

The structures appear in SMILES notation. A value given as a limit tells only on which side of the number the result lay.

Turning to `NC(=O)c1cc(-c2ccc(N)nc2[C@H](Cc2cc(F)cc(F)c2)NC(=O)Cc2c[nH]c3ccc(F)cc23)ccc1F` [Compound 1H, (S)-5-(6-amino-2-(2-(3,5-difluorophenyl)-1-(2-(5-fluoro-1H-indol-3-yl)acetamido)ethyl)pyridin-3-yl)-2-fluorobenzamide], the inhibition at 3 µM with HIV-IIIb was 98%. This compound also displayed a CC50 at 5 days in data set [1] of 22.1 µM. The like results for `NC(=O)c1cc(-c2ccc(N)nc2[C@@H](Cc2cc(F)cc(F)c2)NC(=O)Cc2c[nH]c3ccc(F)cc23)ccc1F` [Compound 2, (R)-5-(6-amino-2-(2-(3,5-difluorophenyl)-1-(2-(5-fluoro-1H-indol-3-yl)acetamido)ethyl)pyridin-3-yl)-2-fluorobenzamide] were, in that order, 0% and 25.2 µM. The like results for `Nc1ccc(-c2ccc(Cl)cc2)c(C(Cc2cc(F)cc(F)c2)NC(=O)Cc2c[nH]c3ccc(F)cc23)n1` (stereo not shown) [Compound 3, N-(1-(6-amino-3-(4-chlorophenyl)pyridin-2-yl)-2-(3,5-difluorophenyl)ethyl)-2-(5-fluoro-1H-indol-3-yl)acetamide] were, in that order, 87% and 9.34 µM. The like results for `NC(=O)c1cccc(-c2ccc(N)nc2C(Cc2cc(F)cc(F)c2)NC(=O)Cc2c[nH]c3ccc(F)cc23)c1` (stereo not shown) [Compound 4, 3-(6-amino-2-(2-(3,5-difluorophenyl)-1-(2-(5-fluoro-1H-indol-3-yl)acetamido)ethyl)pyridin-3-yl)benzamide] were, in that order, 94% and 13.1 µM. Take `Nc1ccc(-c2cccc(S(N)(=O)=O)c2)c(C(Cc2cc(F)cc(F)c2)NC(=O)Cc2c[nH]c3ccc(F)cc23)n1` (stereo not shown) [Compound 5, N-(1-(6-amino-3-(3-sulfamoylphenyl)pyridin-2-yl)-2-(3,5-difluorophenyl)ethyl)-2-(5-fluoro-1H-indol-3-yl)acetamide]: the inhibition at 3 µM in the data set on HIV-IIIb was found to be 87%. The compound further registered a CC50 at 5 days in data set [1] of 28.7 µM. The like results for `Nc1ccc(-c2cccc(CO)c2)c(C(Cc2cc(F)cc(F)c2)NC(=O)Cc2c[nH]c3ccc(F)cc23)n1` (stereo not shown) [Compound 6, N-(1-(6-amino-3-(3-(hydroxymethyl)phenyl)pyridin-2-yl)-2-(3,5-difluorophenyl)ethyl)-2-(5-fluoro-1H-indol-3-yl)acetamide] were, in that order, 59% and 14.4 µM. `Nc1ccc(-c2ccc(Oc3ccccc3)cc2)c(C(Cc2cc(F)cc(F)c2)NC(=O)Cc2c[nH]c3ccc(F)cc23)n1` (stereo not shown) [Compound 7, N-(1-(6-amino-3-(4-phenoxyphenyl)pyridin-2-yl)-2-(3,5-difluorophenyl)ethyl)-2-(5-fluoro-1H-indol-3-yl)acetamide]: in the data set with HIV-IIIb, the inhibition at 3 µM amounted to 37%. The compound further yielded a CC50 at 5 days in data set [1] of 11.5 µM. The like results for `Nc1ccc(-c2cccc(OCC(F)(F)F)c2)c(C(Cc2cc(F)cc(F)c2)NC(=O)Cc2c[nH]c3ccc(F)cc23)n1` (stereo not shown) [Compound 8, N-(1-(6-amino-3-(3-(2,2,2-trifluoroethoxy)phenyl)pyridin-2-yl)-2-(3,5-difluorophenyl)ethyl)-2-(5-fluoro-1H-indol-3-yl)acetamide] were, in that order, 50% and 11.7 µM.

On to `Nc1ccc(-c2cccc(F)c2)c(C(Cc2cc(F)cc(F)c2)NC(=O)Cc2c[nH]c3ccc(F)cc23)n1` (stereo not shown) [Compound 9, N-(1-(6-amino-3-(3-fluorophenyl)pyridin-2-yl)-2-(3,5-difluorophenyl)ethyl)-2-(5-fluoro-1H-indol-3-yl)acetamide], for which the inhibition at 3 µM in the data set on HIV-IIIb came to 41%. The CC50 at 5 days in data set [1] stood at 17.5 µM. The like results for `COc1cc(-c2ccc(N)nc2C(Cc2cc(F)cc(F)c2)NC(=O)Cc2c[nH]c3ccc(F)cc23)ccn1` (stereo not shown) [Compound 10, N-(1-(6-amino-2′-methoxy-[3,4′-bipyridin]-2-yl)-2-(3,5-difluorophenyl)ethyl)-2-(5-fluoro-1H-indol-3-yl)acetamide] were, in that order, 38% and 23.8 µM. The like results for `COCCNc1ncc(-c2ccc(F)c(C(N)=O)c2)c([C@@H](Cc2cc(F)cc(F)c2)NC(=O)Cn2nc(C(F)(F)F)c3c2CCCC3)n1` [Compound 11J, (R)-5-(4-(2-(3,5-difluorophenyl)-1-(2-(3-(trifluoromethyl)-4,5,6,7-tetrahydro-1H-indazol-1-yl)acetamido)ethyl)-2-((2-methoxyethyl)amino)pyrimidin-5-yl)-2-fluorobenzamide] were, in that order, 0% and 16.3 µM.

On to `COCCNc1ncc(-c2ccc(F)c(C(N)=O)c2)c([C@H](Cc2cc(F)cc(F)c2)NC(=O)Cn2nc(C(F)F)c3c2C(F)(F)CCC3(F)F)n1` [Compound 12E, (S)-5-(4-(1-(2-(3-(difluoromethyl)-4,4,7,7-tetrafluoro-4,5,6,7-tetrahydro-1H-indazol-1-yl)acetamido)-2-(3,5-difluorophenyl)ethyl)-2-((2-methoxyethyl)amino)pyrimidin-5-yl)-2-fluorobenzamide], for which, in the data set on HIV-IIIb, the inhibition at 3 µM stood at 86%. This compound also had a CC50 at 5 days in data set [1] of 18.2 µM. The like results for `NC(=O)c1cc(-c2cnc(NCC3CC3)nc2[C@H](Cc2cc(F)cc(F)c2)NC(=O)Cn2nc(C(F)F)c3c2C(F)(F)CCC3(F)F)ccc1F` [Compound 13B, (S)-5-(2-((cyclopropylmethyl)amino)-4-(1-(2-(3-(difluoromethyl)-4,4,7,7-tetrafluoro-4,5,6,7-tetrahydro-1H-indazol-1-yl)acetamido)-2-(3,5-difluorophenyl)ethyl)pyrimidin-5-yl)-2-fluorobenzamide] were, in that order, 42% and 7.72 µM.

In the case of `CNc1ncc(-c2ccc(F)c(C(N)=O)c2)c([C@H](Cc2cc(F)cc(F)c2)NC(=O)Cn2nc(C(F)F)c3c2C(F)(F)CCC3(F)F)n1` [Compound 14B, (S)-5-(4-(1-(2-(3-(difluoromethyl)-4,4,7,7-tetrafluoro-4,5,6,7-tetrahydro-1H-indazol-1-yl)acetamido)-2-(3,5-difluorophenyl)ethyl)-2-(methylamino)pyrimidin-5-yl)-2-fluorobenzamide], the inhibition at 3 µM with HIV-IIIb turned out to be 89%. For the same compound, half-maximal cytotoxicity in data set [1] (CC50 at 5 days) was put at 28.6 µM.

Take `NC(=O)c1cc(-c2cnc(N3CC4(COC4)C3)nc2[C@H](Cc2cc(F)cc(F)c2)NC(=O)Cn2nc(C(F)F)c3c2C(F)(F)CCC3(F)F)ccc1F` [Compound 15B, (S)-5-(4-(1-(2-(3-(difluoromethyl)-4,4,7,7-tetrafluoro-4,5,6,7-tetrahydro-1H-indazol-1-yl)acetamido)-2-(3,5-difluorophenyl)ethyl)-2-(2-Oxa-6-azaspiro[3.3]heptan-6-yl)pyrimidin-5-yl)-2-fluorobenzamide]: the inhibition at 3 µM in the data set with HIV-IIIb was determined as 70%. Also, the CC50 at 5 days in data set [1] was 36.3 µM. The like results for `CN(C)CCNc1ncc(-c2ccc(F)c(C(N)=O)c2)c([C@H](Cc2cc(F)cc(F)c2)NC(=O)Cn2nc(C(F)F)c3c2C(F)(F)CCC3(F)F)n1` [Compound 16B, (S)-5-(4-(1-(2-(3-(difluoromethyl)-4,4,7,7-tetrafluoro-4,5,6,7-tetrahydro-1H-indazol-1-yl)acetamido)-2-(3,5-difluorophenyl)ethyl)-2-((2-(dimethylamino)ethyl)amino)pyrimidin-5-yl)-2-fluorobenzamide] were, in that order, 41% and 15.4 µM. The like results for `COCCOCCNc1ncc(-c2ccc(F)c(C(N)=O)c2)c([C@H](Cc2cc(F)cc(F)c2)NC(=O)Cn2nc(C(F)F)c3c2C(F)(F)CCC3(F)F)n1` [Compound 17B, (S)-5-(4-(1-(2-(3-(difluoromethyl)-4,4,7,7-tetrafluoro-4,5,6,7-tetrahydro-1H-indazol-1-yl)acetamido)-2-(3,5-difluorophenyl)ethyl)-2-((2-(2-methoxyethoxy)ethyl)amino)pyrimidin-5-yl)-2-fluorobenzamide] were, in that order, 83% and 48.8 µM. The like results for `CN(C)c1ncc(-c2ccc(F)c(C(N)=O)c2)c([C@H](Cc2cc(F)cc(F)c2)NC(=O)Cn2nc(C(F)F)c3c2C(F)(F)CCC3(F)F)n1` [Compound 18B, (S)-5-(4-(1-(2-(3-(difluoromethyl)-4,4,7,7-tetrafluoro-4,5,6,7-tetrahydro-1H-indazol-1-yl)acetamido)-2-(3,5-difluorophenyl)ethyl)-2-(dimethylamino)pyrimidin-5-yl)-2-fluorobenzamide] were, in that order, 16% and 38.9 µM.

Consider `NC(=O)c1cc(-c2cnc(N3CCC(=O)CC3)nc2[C@H](Cc2cc(F)cc(F)c2)NC(=O)Cn2nc(C(F)F)c3c2C(F)(F)CCC3(F)F)ccc1F` [Compound 19C, (S)-5-(4-(1-(2-(3-(difluoromethyl)-4,4,7,7-tetrafluoro-4,5,6,7-tetrahydro-1H-indazol-1-yl)acetamido)-2-(3,5-difluorophenyl)ethyl)-2-(4-oxopiperidin-1-yl)pyrimidin-5-yl)-2-fluorobenzamide], for which, in the data set with HIV-IIIb, the inhibition at 3 µM stood at 26%. In data set [1], this compound yielded a half-maximal cytotoxic concentration (CC50) at 5 days greater than 51.5 µM. As for `CC(=O)Oc1ccc(-c2ccc(F)c(C(N)=O)c2)c([C@H](Cc2cc(F)cc(F)c2)NC(=O)Cn2nc(C(F)F)c3c2C(F)(F)CCC3(F)F)n1` [Compound 20B, (S)-5-(3-carbamoyl-4-fluorophenyl)-6-(1-(2-(3-(difluoromethyl)-4,4,7,7-tetrafluoro-4,5,6,7-tetrahydro-1H-indazol-1-yl)acetamido)-2-(3,5-difluorophenyl)ethyl)pyridin-2-yl acetate], the CC50 at 5 days in data set [1] was greater than 53.2 µM. In the case of `NC(=O)c1cc(-c2cnc(NCCN3CCCC3)nc2[C@H](Cc2cc(F)cc(F)c2)NC(=O)Cn2nc(C(F)F)c3c2C(F)(F)CCC3(F)F)ccc1F` [Compound 27], the CC50 at 5 days in data set [1] was 3.5 µM.
